# Active and inactive are the calls of the source. No cut-off for these calls is given here.
# What was measured:
# Format in all cases: functional
# Staphylococcus aureus [1] = test: Antibacterial activity against methicillin-resistant Staphylococcus aureus after 18 to 20 hrs by CLSI-protocol based broth microdilution method
# [2] = tested on: Staphylococcus epidermidis; test: Antibacterial activity against methicillin-sensitive Staphylococcus epidermidis after 18 to 20 hrs by CLSI-protocol based broth microdilution method
# Streptococcus pneumoniae = test: Antibacterial activity against penicillin-resistant Streptococcus pneumoniae after 18 to 20 hrs by CLSI-protocol based broth microdilution method
# Streptococcus pyogenes = test: Antibacterial activity against Streptococcus pyogenes after 18 to 20 hrs by CLSI-protocol based broth microdilution method
# Staphylococcus aureus [3] = test: Antibacterial activity against methicillin-sensitive Staphylococcus aureus after 18 to 20 hrs by CLSI-protocol based broth microdilution method
# [4] = tested on: Staphylococcus epidermidis; test: Antibacterial activity against methicillin-resistant Staphylococcus epidermidis after 18 to 20 hrs by CLSI-protocol based broth microdilution method
# [5] = Streptococcus pyogenes, read-out: MIC
# [6] = Staphylococcus aureus, read-out: MIC
SMILES,MIC (Staphylococcus aureus [1]),MIC [2],MIC (Streptococcus pneumoniae),MIC (Streptococcus pyogenes; [5]) [µg/mL],MIC (Staphylococcus aureus [3]; [6]) [µg/mL],MIC [4],MIC (Streptococcus pyogenes),MIC (Staphylococcus aureus [3])
C[C@@H]1CN2c3c(cc4c(N5C(=O)SCC56CC6)noc4c3F)CC3(C(=O)NC(=O)NC3=O)[C@H]2[C@H](C)O1,0.5 to 8 µg/mL,1 to 4 µg/mL,1 to 2 µg/mL,4,2 to 4,2 to 4 µg/mL,,
CC[C@@H]1CSC(=O)N1c1noc2c(F)c3c(cc12)CC1(C(=O)NC(=O)NC1=O)[C@H]1[C@H](C)O[C@H](C)CN31,0.5 to 2 µg/mL,1 µg/mL,2 µg/mL,4,0.5 to 1,0.25 to 2 µg/mL,,
C[C@@H]1CN2c3c(cc4c(N5C[C@H](CO)SC5=O)noc4c3F)CC3(C(=O)NC(=O)NC3=O)[C@H]2[C@H](C)O1,0.5 to 4 µg/mL,0.06 to 0.25 µg/mL,0.125 to 0.25 µg/mL,0.125 to 0.5,1,0.03 to 0.125 µg/mL,,
CC[C@H]1CSC(=O)N1c1noc2c(F)c3c(cc12)CC1(C(=O)NC(=O)NC1=O)[C@H]1[C@H](C)O[C@H](C)CN31,0.5 to 1 µg/mL,0.5 to 1 µg/mL,0.5 to 1 µg/mL,0.5 to 1,0.25 to 0.5,0.25 to 0.5 µg/mL,,
C[C@@H]1CN2c3c(cc4c(N5C(=O)SC[C@@H]5Cc5ccccc5)noc4c3F)CC3(C(=O)NC(=O)NC3=O)[C@H]2[C@H](C)O1,8 to 16 µg/mL,1 to 4 µg/mL,4 to 8 µg/mL,4 to 8,2 to 8,1 to 4 µg/mL,,
C[C@@H]1CN2c3c(cc4c(N5C(=O)OC[C@@H]5C)noc4c3F)CC3(C(=O)N(C)C(=O)N(C)C3=O)[C@H]2[C@H](C)O1,inactive,inactive,inactive,,,inactive,inactive,inactive
CC[C@@H]1CN(c2noc3c(F)c4c(cc23)CC2(C(=O)NC(=O)NC2=O)[C@H]2[C@H](C)O[C@H](C)CN42)C(=O)S1,,< 0.03 µg/mL,,< 0.03,,< 0.03 µg/mL,,
C[C@@H]1CN2c3c(cc4c(N5CCOCC5=O)ncnc4c3F)CC3(C(=O)NC(=O)NC3=O)[C@H]2[C@H](C)O1 (racemic),inactive,inactive,inactive,,,inactive,inactive,inactive
C[C@@H]1CN2c3c(cc4c(N5C(=O)OC[C@@H]5C)noc4c3F)CC3(C(=O)NS(=O)(=O)NC3=O)[C@H]2[C@H](C)O1,inactive,inactive,inactive,,,inactive,inactive,inactive
C[C@@H]1CN2c3c(cc4c(N5CCOC5=O)ncnc4c3F)CC3(C(=O)NC(=O)NC3=O)[C@H]2[C@H](C)O1 (relative stereo),inactive,inactive,inactive,,,inactive,inactive,inactive
Cc1ncnc2c(F)c3c(cc12)CC1(C(=O)NC(=O)NC1=O)[C@H]1[C@H](C)O[C@H](C)CN31 (racemic),inactive,inactive,inactive,,,inactive,inactive,inactive
C[C@@H]1CN2c3c(cc4c(N5CCOC5=S)noc4c3F)CC3(C(=O)NC(=O)NC3=O)[C@H]2[C@H](C)O1 (racemic),1 to 2 µg/mL,0.5 to 2 µg/mL,1 to 2 µg/mL,2,0.5 to 1,1 µg/mL,,
C[C@@H]1CN2c3c(cc4c(N5C(=O)OCC5(C)C)noc4c3F)CC3(C(=O)NC(=O)NC3=O)[C@H]2[C@H](C)O1 (racemic),16 µg/mL,16 µg/mL,16 µg/mL,16,16,16 µg/mL,,
C[C@@H]1CN2c3c(cc4c(N5C(=O)S[C@@H]6CCCC[C@@H]65)noc4c3F)CC3(C(=O)NC(=O)NC3=O)[C@H]2[C@H](C)O1,0.5 to 2 µg/mL,0.25 to 0.5 µg/mL,< 0.03 µg/mL,,0.5 to 1,0.125 to 0.5 µg/mL,,
C[C@H]1COc2c(N3CCN(C)CC3)c(F)cc3c(=O)c(C(=O)O)cn1c23.C[C@H]1COc2c(N3CCN(C)CC3)c(F)cc3c(=O)c(C(=O)O)cn1c23.O [LEVOFLOXACIN],16 to 64 µg/mL,0.5 to 4 µg/mL,,0.5 to 1,4 to 64,4 to 64 µg/mL,,
C[C@@H]1CN2c3c(cc4c(N5CC6(CC6)OC5=O)noc4c3C#N)CC3(C(=O)NC(=O)NC3=O)[C@H]2[C@H](C)O1,0.03 to 8 µg/mL,0.25 to 2 µg/mL,1 to 2 µg/mL,4,1 to 4,0.5 to 2 µg/mL,,
C[C@@H]1CN2c3c(cc4c(N5C[C@H](CF)SC5=O)noc4c3F)CC3(C(=O)NC(=O)NC3=O)[C@H]2[C@H](C)O1,,< 0.03 µg/mL,0.06 to 0.25 µg/mL,,0.06 to 0.125,,,
C[C@@H]1CN2c3c(cc4c(N5CC6(COC6)OC5=O)noc4c3F)CC3(C(=O)NC(=O)NC3=O)[C@H]2[C@H](C)O1,0.03 to 1 µg/mL,0.03 to 0.125 µg/mL,0.125 to 0.5 µg/mL,0.125 to 0.25,0.125 to 0.25,0.03 to 0.25 µg/mL,,

SMILES,MIC (Staphylococcus aureus [1]),MIC [2],MIC (Streptococcus pneumoniae),MIC (Streptococcus pyogenes; [5]) [µg/mL],MIC (Staphylococcus aureus [3]; [6]) [µg/mL],MIC [4],MIC (Streptococcus pyogenes),MIC (Staphylococcus aureus [3])
C[C@@H]1CN2c3c(cc4c(N5C[C@H](CS(C)(=O)=O)SC5=O)noc4c3F)CC3(C(=O)NC(=O)NC3=O)[C@H]2[C@H](C)O1,1 to 8 µg/mL,0.25 to 1 µg/mL,0.5 to 4 µg/mL,0.5 to 1,2 to 4,0.25 to 1 µg/mL,,
C[C@@H]1CN2c3c(cc4c(N5C[C@H](C)SC5=O)noc4c3C#N)CC3(C(=O)NC(=O)NC3=O)[C@H]2[C@H](C)O1,,0.06 to 0.125 µg/mL,0.125 to 0.25 µg/mL,0.125 to 0.5,0.06 to 1,0.06 to 0.5 µg/mL,,
C[C@@H]1CN2c3c(cc4c(N5CCOCC5)ncnc4c3F)CC3(C(=O)NC(=O)NC3=O)[C@H]2[C@H](C)O1 (racemic),inactive,inactive,inactive,,,inactive,inactive,inactive
C[C@@H]1CN2c3c(cc4c(N5C[C@H](COC(F)(F)F)SC5=O)noc4c3F)CC3(C(=O)NC(=O)NC3=O)[C@H]2[C@H](C)O1,,,0.125 to 0.5 µg/mL,0.125 to 0.25,0.06 to 1,,,
C[C@@H]1CN2c3c(cc4c(N5C(=O)S[C@H]6CCC[C@H]65)noc4c3F)CC3(C(=O)NC(=O)NC3=O)[C@H]2[C@H](C)O1,0.25 to 1 µg/mL,0.5 µg/mL,0.25 to 0.5 µg/mL,0.125,0.25 to 0.5,0.5 µg/mL,,
C[C@@H]1CN2c3c(cc4c(N5CCCOC5=O)noc4c3F)CC3(C(=O)NC(=O)NC3=O)[C@H]2[C@H](C)O1 (racemic),1 to 64 µg/mL,4 µg/mL,4 to 8 µg/mL,4,4 to 8,1 to 8 µg/mL,,
C[C@@H]1CN2c3c(cc4c(N5CC6(CCCC6)OC5=O)noc4c3F)CC3(C(=O)NC(=O)NC3=O)[C@H]2[C@H](C)O1,0.06 to 1 µg/mL,0.06 to 0.25 µg/mL,0.25 to 1 µg/mL,0.25 to 0.5,0.125 to 0.25,0.03 to 0.25 µg/mL,,
C[C@@H]1CN2c3c(cc4c(N5C[C@H](CN=[N+]=[N-])SC5=O)noc4c3F)CC3(C(=O)NC(=O)NC3=O)[C@H]2[C@H](C)O1,0.25 to 0.5 µg/mL,0.03 to 0.25 µg/mL,0.125 µg/mL,0.125 to 1,0.06 to 0.25,0.03 to 0.125 µg/mL,,
C[C@@H]1CN2c3c(cc4c(N5CCSCC5)ncnc4c3F)CC3(C(=O)NC(=O)NC3=O)[C@H]2[C@H](C)O1 (racemic),inactive,inactive,inactive,,,inactive,inactive,inactive
C[C@@H]1CN2c3c(cc4c(N5C(=O)SC[C@H]5C)noc4c3F)CC3(C(=O)NC(=O)NC3=O)[C@H]2[C@H](C)O1,0.03 to 0.5 µg/mL,0.03 to 0.125 µg/mL,0.25 to 1 µg/mL,0.125 to 0.25,0.25 to 0.5,0.03 to 0.125 µg/mL,,
C[C@@H]1CN2c3c(cc4c(-n5cncn5)ncnc4c3F)CC3(C(=O)NC(=O)NC3=O)[C@H]2[C@H](C)O1 (racemic),inactive,inactive,inactive,,,inactive,inactive,inactive
C[C@@H]1CN2c3c(cc4c(N5C(=O)OC[C@@H]5C)noc4c3C#N)CC3(C(=O)NC(=O)NC3=O)[C@H]2[C@H](C)O1,1 to 32 µg/mL,0.5 to 2 µg/mL,2 to 8 µg/mL,4 to 8,4 to 8,1 to 2 µg/mL,,
C[C@@H]1CN(c2noc3c(C#N)c4c(cc23)CC2(C(=O)NC(=O)NC2=O)[C@H]2[C@H](C)O[C@H](C)CN42)C(=O)O1,0.25 to 8 µg/mL,1 to 2 µg/mL,4 to 8 µg/mL,4 to 8,2 to 8,2 µg/mL,,
CC(=O)NC[C@H]1CN(c2noc3c(F)c4c(cc23)CC2(C(=O)NC(=O)NC2=O)[C@H]2[C@H](C)O[C@H](C)CN42)C(=O)S1,16 to 64 µg/mL,2 to 8 µg/mL,2 µg/mL,16 to 32,16,0.5 to 2 µg/mL,,
C[C@@H]1CN2c3c(cc4c(N5C[C@H](c6ccccc6)SC5=O)noc4c3F)CC3(C(=O)NC(=O)NC3=O)[C@H]2[C@H](C)O1,0.125 to 2 µg/mL,0.5 to 2 µg/mL,1 to 2 µg/mL,4,0.5 to 1,0.125 to 0.5 µg/mL,,
C[C@@H]1CN2c3c(cc4c(N5C(=O)S[C@@H]6CCC[C@@H]65)noc4c3F)CC3(C(=O)NC(=O)NC3=O)[C@H]2[C@H](C)O1,,< 0.03 µg/mL,< 0.03 µg/mL,< 0.03,,,,
C[C@@H]1CN2c3c(cc4c(N5C(=O)OCC56CC6)noc4c3F)CC3(C(=O)NC(=O)NC3=O)[C@H]2[C@H](C)O1 (racemic),1 to 4 µg/mL,1 to 2 µg/mL,2 µg/mL,1 to 2,1,0.5 to 2 µg/mL,,
